Experiments:
[1] = tested on: cardiomyocytes; experiment: RT-qPCR of cardiomyocytes isolated from doxorubicin-treated mice; type: in vivo, mouse
Procedure: Isolation of cardiomyocytes from mouse heart was carried out with Langendorff perfusion apparatus according to the standard protocol described above. Total RNA extraction was performed with TRIZOL Reagent (Invitrogen) and purification with RNeasy Mini Kit (QIAGEN) according the manufacturer's protocol. The concentration of RNA obtained was measured using a super-sensitive NanoDrop ND1000 spectrophotometer (Thermo Scientific). Reverse transcription reaction was performed by using the High Capacity RNA-to-cDNA Kit (Applied Biosystem). In brief, cDNA was generated from 1 μg of RNA by RT Enzyme Mix according to the manufacturer's instructions on a PCR thermocycler (S1000TM Thermal Cycler, BIO-RAD, USA). The resulting cDNA was diluted to a final concentration of 50 ng/μl for PCR amplification. Real time quantitative PCR was carried out by using a 7900HT Fast Real-Time PCR System (Applied Biosystems). Mouse TaqMan® Gene primers and probes (FAM, Applied Biosystem), were used in PCR amplification. Mouse GAPDH was used as internal control (VIC®/MGB Probe, Primer Limited, Applied Biosystem). The following TaqMan® Gene primers/probes were used Sdha (Mm01352366_m1), ATP5a1: (Mm00431960_m1), Ndufa3 (Mm01329704_g1), Ppargcla (PGC-1α, Mm01208835_m1), Ppargc1b (PGC-1β, Mm00504720_m1), Esrra (EER, Mm00433143_m1), Trp53inp1 (Mm00458141_m1), Fas: (Mm00433237_m1), Apaf1 (Mm01223702_m1), Bax (Mm00432051_m1), Mdm2 (Mm01233136_m1), and GAPDH: Mouse GAPD (GAPDH) Endogenous Control (VIC®/MGB Probe, Primer Limited). Comparative analyses of each gene were performed using company-provided softwares, SDS2.4 and RQ Manager 1.2.1 (Applied Biosystems). All amplifications were carried out at least in duplicates. The mRNA expression levels of each gene were calculated by using the 2-ΔΔCt (comparative threshold cycle) method, as detailed by the manufacturer (Applied Biosystems).

[2] = tested on: DNA double strand breaks in the heart; experiment: Detection of DNA double strand breaks (γ-H2AX staining) in heart sections; type: in vivo, mouse; conditions: acute doxorubicin 25 mg/kg, 16 h
Procedure: After mice were sacrificed, hearts were perfused with ice-cold PBS, quickly removed, embedded in OCT compound (Fisher Scientific), and snap-frozen in liquid nitrogen. The heart was sectioned to 5 μm-thick slices using a cryostat. Heart sections were stored at −80° C. until immunofluorescence staining was performed. Heart sections were rinsed with PBS at room temperature, fixed in BD Cytofix/Cytoperm solution (BD Biosciences) for 15 m, washed in PBS, and permeabilized in BD Perm/Wash solution for 30 m. Heart sections were first blocked with BSA (2 mg/ml) for 30 m, then incubated with an mouse monoclonal anti-γ-H2AX antibody conjugated with Alexa Fluor 555 (Clone N1-431, BD Biosciences) for 1 h. Nuclei were stained with DAPI (Sigma, 1 μg/ml PBS), and the slides were sealed for examination with an Olympus epifluorescence microscope (Model BX51). To quantify DSBs, the numbers of γ-H2AX-positive nuclei and the total nuclei were counted in 5 microscopic fields (400×) per section. For each mouse, five heart sections were counted to determine the percentage of γ-H2AX-positive nuclei.
To further confirm the cardio-protective effect of Dex, DNA double strand breaks were assessed in heart tissues. Dexrazoxane (100 mg/kg) was injected (ip) 8 hrs prior to doxorubicin (25 mg/kg) treatment. Hearts were harvested 16 hr after doxorubicin treatment. The percentage of γH2AX-positive nuclei was counted in 5 fields (400×) in each heart section. Five sections were counted in each heart to determine the average percentage of γH2AX-positive nuclei.

[3] = tested on: cardiomyocytes; experiment: Western blot of Ndufa3, Atp5a and Sdha in mitochondria isolated from cardiomyocytes; type: in vivo, mouse; conditions: cardiomyocytes of doxorubicin-treated Top2b+/+ mice, 72 h
Procedure: Expression of Top2b was examined in the hearts of mice. After sacrifice, the heart was quickly removed and homogenized immediately in lysis buffer. After homogenization, the lysate was sonicated at 4° C. and an aliquot was removed for protein concentration measurement. The lysate was stored at −80° C. for western blot analysis. 20 μg of lysate proteins were electrophoresed and transferred to PVDF membranes. Blots were blocked with 5% non-fat dry milk, and incubated overnight at 4° C. with anti-Top2b antibody (Abcam). To detect mitochondrial proteins, the mitochondria were isolated from cardiomyocytes. The cardiomyocytes were isolated with a Langendorff perfusion system according to a published protocol3. Briefly, heart was removed and rinsed with ice-cold PBS twice before connecting to a Langendorff apparatus through the aorta. The heart was perfused first with perfusion buffer for 3 m at 37° C. (3 ml/min), then digestion buffer (enzyme-containing) buffer at 37° C. for 8-10 m. The heart was disintegrated manually and the tissue/cells were separated by using forceps. […] After incubation with HRP-conjugated secondary antibodies for 40 m at room temperature, the blots were detected with a luminol-based detection kit (ECL, GE Health Care).

[4] = tested on: HL-1 cells; experiment: PGC-1 expression in HL-1 cells by RT-qPCR; type: cell-based; conditions: doxorubicin 1 μm for 2 or 4 hours
Procedure: FIGS. 7a-e: a, b. PGC-1 expression in HL-1 cells. […] Expression was measured with RT-qPCR. c, d. CHiP analysis in HL-1 cells. HL-1 cardiomyocytes were treated with (right bars) or without (left bars) DOX ([…]) for 2 hrs and isolated for ChIP using the Top2β antibody. The eluted DNA and Input were PCR amplified to detect specific promoter regions represented in the schematic above the respective ChIP data. […] CHiP study in cardiomyocytes. Cardiomyocytes were isolated from control (n=4) and Dox-treated (n=4) mice and subject to ChIP with the Top2b antibody. The data represent real-time PCR ratios for the fold-enrichment of Top2b at the respective promoters.

[5] = tested on: mouse heart; experiment: Cardiac MRI for measuring cardiac function after chronic doxorubicin; conditions: mice, doxorubicin 5 mg/kg ip once a week for 5 weeks; decreased from 57% (Example 4, FIG. 13)
Procedure: Before Cre induction, cardiac MRI scan was performed on each mouse to examine the baseline ejection fraction. Cardiomyocyte-specific Cre induction was carried out by treating mice with tamoxifen. […] Doxorubicin treatment (5 mg/kg, i.p., once a week for 5 weeks) was started 7 days after the second MRI scan. Two weeks after the last dose of doxorubicin, a third MRI scan was performed (FIG. 6a).
Every mouse in the EF experiments received 3 MRI scans, i.e., a baseline scan, a second scan 2 weeks after the end of tamoxifen treatment, and a third scan 2 weeks after the last dose of doxorubicin. […] Mice were anesthetized with isoflurane (2.5% in 97.5% O2), and scanned on a 7.0 T Biospec small animal scanner (Bruker Biospin Inc., Billerica, Mass.). Imaging gradients with 60 mm inner diameter (ID) were used with a 35 mm ID linear birdcage-style volume resonator. T1-weighted anatomic reference images were acquired using a three dimension (3D) fast low-angle shot (FLASH) gradient echo sequence. A retrospectively gated FLASH pulse sequence was used to acquire cardiac cine images with excellent contrast between bright blood and adjacent myocardium. To measure volumetric left ventricular ejection fraction (LVEF), at least 6 short axis images were scanned at 1 mm interval from the apex to the base of the heart. End-diastolic (ED) and end-systolic (ES) left ventricular volumes were obtained by the biplane area length method, and LVEF was calculated with the equation: [(ED-ES)/ED]/100.
Two weeks after completion of tamoxifen treatment mice were treated with doxorubicin or drug vehicle. Two cohorts of mice were treated with different schedules. […] To evaluate the chronic effect of doxorubicin on cardiac function, doxorubicin (5 mg/kg, i.p.) was administered once a week for 5 weeks, and cardiac function was examined 2 weeks after the last dose of doxorubicin by using MRI.
The effect of chronic doxorubicin treatment (5 mg/kg, ip, once a week for 5 weeks) was evaluated for its effect on ejection fraction.

[6] = Top2b+/+ cardiomyocytes, 16 hrs after doxorubicin 25 mg/kg i.p.

Structure (SMILES): COc1cccc2c1C(=O)c1c(O)c3c(c(O)c1C2=O)C[C@@](O)(C(=O)CO)C[C@@H]3O[C@H]1C[C@H](N)[C@H](O)[C@H](C)O1 [doxorubicin]
- Transcript of Apaf1, Bax, and Fas (apoptosis pathway genes) [1, 6]: increases
- Up-regulation of the transcript encoding p53DINP1 (TP53INP1) [1, 6]: 200 fold
- Genes involved in mitochondrial biogenesis (RT-qPCR) ([1]; Top2b+/+ hearts, chronic doxorubicin 5 mg/kg once a week for 5 weeks): Reduction of genes involved in mitochondrial biogenesis
- Transcripts of Ndufa3, Sdha and Atp5a (electron transport chain) ([1]; doxorubicin treated Top2b+/+ cardiomyocytes, 72 h, much less so in Top2bΔ/Δ): decreased
- Erra transcript ([1]; doxorubicin-treated wild type cardiomyocytes, 72 h, not in Top2b-deleted): down-regulated
- DSBs in the nuclei (γ-H2AX-positive nuclei) ([2]; Top2b+/+ mice): caused DSBs
- Reduction of doxorubicin-caused DSBs in Top2bΔ/Δ mice versus Top2b+/+ mice [2]: 60%
- Protein levels of Ndufa3, Atp5a and Sdha in mitochondria [3]: reduction in the protein levels
- Expression of PGC-1α [4]: Reduced expression
- Expression of PGC-1β [4]: Reduced expression
- Ejection fraction after treatment [5]: 45%

Reference: US9169509B2, “Topoisomerase 2b as a predictor of susceptibility to anthracycline-induced cardiotoxicity” (Board of Regents, The University of Texas System, priority 2013, dated 2015)
